Results from ChEMBL document CHEMBL5335778, “Bench-to-bedside: Innovation of small molecule anti-SARS-CoV-2 drugs in China” (Eur J Med Chem, 2023).

Legend:
[1] = system: Middle East respiratory syndrome-related coronavirus; test: Antiviral activity against MERS-CoV infected in HAE cells; type: functional, organism-based
[2] = system: Respiratory syncytial virus; test: Antiviral activity against Respiratory syncytial virus; type: functional, organism-based; conditions: human respiratory syncytial virus
[3] = system: SARS-CoV; test: Antiviral activity against SARS-CoV infected in Vero E6 cells assessed as reduction in viral replication measured after 48 hrs by qRT-PCR assay; type: functional, organism-based; conditions: Severe acute respiratory syndrome-related coronavirus, Vero C1008, 48 h
[4] = system: Ebolavirus; test: Antiviral activity against EBOV infected in human Huh-7 cells assessed as reduction in viral replication; type: functional, organism-based; conditions: Orthoebolavirus
[5] = system: SARS-CoV-2; test: microbe, parasite or virus in culture; conditions: Severe acute respiratory syndrome coronavirus 2, Vero C1008
[6] = Selectivity index, ratio of CC50 for cytotoxicity against human HEp-2 cells to IC50 for antiviral activity against RSV A2 infected in human HEp-2 cells
[7] = in vitro; conditions: monkey, Vero E6 cells
[8] = biological target: T1, Human immunodeficiency virus type 1 reverse transcriptase (Human immunodeficiency virus 1, UniProt Q72547); test: Inhibition of HIV-1 reverse transcriptase associated RNA-dependent DNA polymerase
[9] = system: SARS-CoV-2; test: Antiviral activity against SARS-CoV-2 […] B.1.617.2 delta infected in human 293TA cells assessed as reduction of viral growth measured after 48 hrs by luciferase assay; type: functional, organism-based; conditions: Severe acute respiratory syndrome coronavirus 2, 293TA
[10] = system: SARS-CoV-2; test: Antiviral activity against SARS-CoV-2 B.1.1.7 Alpha infected in human Calu-3 cells assessed as inhibition of viral infection preincubated for 1 hr followed by viral infection measured after 48 hrs by Hoechst 33342 staining based analysis; type: functional, organism-based; conditions: Severe acute respiratory syndrome coronavirus 2, B.1.1.7, Calu-3
[11] = system: SARS-CoV-2; test: Antiviral activity against SARS-CoV-2 Omicron assessed as reduction of viral growth; type: functional, organism-based; conditions: Severe acute respiratory syndrome coronavirus 2, Omicron
[12] = system: SARS-CoV-2; test: Antiviral activity against SARS-CoV-2 […] infected in human 293TA cells assessed as reduction of viral growth measured after 48 hrs by luciferase assay; type: functional, organism-based; conditions: Severe acute respiratory syndrome coronavirus 2, 293TA
[13] = biological target: Human immunodeficiency virus type 1 protease (Human immunodeficiency virus 1, UniProt Q72874); test: Inhibition of HIV-1 protease
[14] = biological target: Hepatitis C virus NS5B RNA-dependent RNA polymerase (Hepatitis C virus, UniProt Q8JXU8); test: Inhibition of Hepatitis C virus NS5B polymerase; parameters: species or system Hepacivirus hominis
[15] = biological target: T1, Human immunodeficiency virus type 1 reverse transcriptase; test: Inhibition of wild type HIV-1 reverse transcriptase
[16] = system: Human immunodeficiency virus 2; test: Antiviral activity against HIV-2 D194 infected in PBMC assessed as inhibition of viral growth; type: functional, organism-based; conditions: Human immunodeficiency virus 2, D194, PBMC
[17] = system: SARS-CoV; test: Antiviral activity against SARS-CoV-1 infected in African green monkey Vero E6 cells expressing TMPRSS2; type: functional, organism-based; conditions: Severe acute respiratory syndrome-related coronavirus, Vero C1008
[18] = system: SARS-CoV-2; test: Antiviral activity against SARS-CoV-2 infected in African green monkey Vero E6 cells expressing TMPRSS2 assessed as reduction in virus-induced cytopathic effect measured after 48 hrs by cellular ATP assay; type: functional, organism-based; conditions: Severe acute respiratory syndrome coronavirus 2, Vero C1008, 48 h
[19] = Cytotoxicity against human MT4 cells assessed as reduction in cell viability treated for 5 days by MTT assay; type: toxicity, cell-based; conditions: time 5 day
[20] = system: Human immunodeficiency virus 1; test: Antiviral activity against HIV-1 3B infected in human MT4 cells assessed as reduction in virus-induced cytopathic effect incubated for 5 days by MTT assay; type: functional, organism-based; conditions: Human immunodeficiency virus 1, 3B, MT4, 120 h
[21] = Oral bioavailability in rat; type: ADME, organism-based; conditions: in vivo
[22] = system: SARS-CoV-2; test: Antiviral activity against SARS-CoV-2 assessed as inhibition of viral replication; type: functional, organism-based; conditions: Severe acute respiratory syndrome coronavirus 2
[23] = Oral bioavailability in beagle dog at 2 mg/kg; type: ADME, organism-based, Canis lupus familiaris; conditions: in vivo
[24] = system: Human coronavirus OC43; test: Antiviral activity against HCoV-OC43; type: functional, organism-based; conditions: Betacoronavirus 1

Chain of Hepatitis C virus NS5B RNA-dependent RNA polymerase (Q8JXU8 whole entry): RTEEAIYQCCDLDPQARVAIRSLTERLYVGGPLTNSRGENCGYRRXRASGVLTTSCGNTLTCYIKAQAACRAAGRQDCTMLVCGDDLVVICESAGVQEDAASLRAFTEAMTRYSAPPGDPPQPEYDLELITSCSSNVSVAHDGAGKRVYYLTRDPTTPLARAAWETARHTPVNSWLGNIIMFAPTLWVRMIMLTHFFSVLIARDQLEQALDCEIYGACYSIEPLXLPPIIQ

## CCC(CC)COC(=O)[C@H](C)N[P@](=O)(OC[C@H]1O[C@@](C#N)(c2ccc3c(N)ncnn23)[C@H](O)[C@@H]1O)Oc1ccccc1
[1]
  EC50: 25 nM
[2]
  EC50: 21 nM
[3]
  EC50: 69 nM
[4]
  EC50: 12 nM
[5]
  EC50: 770 nM
[6]
  selectivity ratio: 395
[7]
  selectivity ratio: > 100

## C[C@@]1(O)[C@H](O)[C@@H](CO)O[C@H]1n1ccc(N)nc1=O
[8]
  IC50: 1050 nM

## O=C[C@H](C[C@@H]1CCNC1=O)NC(=O)[C@H](CC1CCCCC1)NC(=O)c1cc2ccccc2[nH]1
[9]
  EC50: 270 nM
[10]
  EC50: 390 nM
[11]
  EC50: 33 nM
[12]
  EC50: 280 nM

## CC(C)(C)[C@H](NC(=O)C(F)(F)F)C(=O)N1C[C@H]2[C@@H]([C@H]1C(=O)N[C@H](C#N)C[C@@H]1CCNC1=O)C2(C)C
[9]
  EC50: 780 nM
[10]
  EC50: 820 nM
[11]
  EC50: 33 nM
[12]
  EC50: 490 nM

## O=C[C@H](C[C@@H]1CCNC1=O)NC(=O)[C@H](Cc1ccccc1)NC(=O)c1cc2ccccc2[nH]1
[11]
  EC50: 33 nM

## [N-]=[N+]=N[C@]1(CO)O[C@@H](n2ccc(N)nc2=O)[C@@H](O)[C@@H]1O
[13]
  IC50: 171 nM
[14]
  IC50: 1280 nM
[15]
  EC50: 0.03 nM
[16]
  EC50: 0.018 nM

## [2H][C@](C(=O)N[C@@H](C)c1ccc(F)cc1)(c1cccnc1)N(C(=O)C(C)=O)c1ccc2c(c1)oc1ccccc12
[11]
  EC50: 33 nM

## O=C(NCc1cccs1)[C@@H]1CN(C(=O)c2cccnc2)CCN1c1ccc(Cl)c(Cl)c1
[11]
  EC50: 33 nM

## Cn1cnc(Cn2c(=O)[nH]/c(=N\c3cc4cn(C)nc4cc3Cl)n(Cc3cc(F)c(F)cc3F)c2=O)n1
[17]
  EC50: 1900 nM
[18]
  EC50: 350 nM

## O=C[C@H](C[C@@H]1CCNC1=O)NC(=O)[C@@H]1[C@H]2CCC[C@H]2CN1C(=O)CCc1cc(F)cc(F)c1
[11]
  EC50: 33 nM

## [2H]c1cc([C@]2(C#N)O[C@H](COC(=O)C(C)C)[C@@H](OC(=O)C(C)C)[C@H]2OC(=O)C(C)C)n2ncnc(N)c12
[19]
  CC50 at 120 h: 280000 nM
[20]
  EC50: 350 nM
[21]
  bioavailability: 49.9%

## [N-]=[N+]=N[C@]1(COP(=O)(O)OP(=O)(O)OP(=O)(O)O)O[C@@H](n2ccc(N)nc2=O)[C@@H](F)[C@@H]1O
[22]
  EC50: 1200 nM
[23]
  bioavailability: 82.7%
[24]
  EC50: 4300 nM
[15]
  EC50: 0.03 nM
[16]
  EC50: 0.018 nM
